Drawing on US12509459B2, “Inhibitors of NLRP3 inflammasome” (BioAge Labs, Inc., priority 2024, dated 2025), this text covers IC50 for 58 molecules.

NLRP3, sequence (Q96P20 whole entry): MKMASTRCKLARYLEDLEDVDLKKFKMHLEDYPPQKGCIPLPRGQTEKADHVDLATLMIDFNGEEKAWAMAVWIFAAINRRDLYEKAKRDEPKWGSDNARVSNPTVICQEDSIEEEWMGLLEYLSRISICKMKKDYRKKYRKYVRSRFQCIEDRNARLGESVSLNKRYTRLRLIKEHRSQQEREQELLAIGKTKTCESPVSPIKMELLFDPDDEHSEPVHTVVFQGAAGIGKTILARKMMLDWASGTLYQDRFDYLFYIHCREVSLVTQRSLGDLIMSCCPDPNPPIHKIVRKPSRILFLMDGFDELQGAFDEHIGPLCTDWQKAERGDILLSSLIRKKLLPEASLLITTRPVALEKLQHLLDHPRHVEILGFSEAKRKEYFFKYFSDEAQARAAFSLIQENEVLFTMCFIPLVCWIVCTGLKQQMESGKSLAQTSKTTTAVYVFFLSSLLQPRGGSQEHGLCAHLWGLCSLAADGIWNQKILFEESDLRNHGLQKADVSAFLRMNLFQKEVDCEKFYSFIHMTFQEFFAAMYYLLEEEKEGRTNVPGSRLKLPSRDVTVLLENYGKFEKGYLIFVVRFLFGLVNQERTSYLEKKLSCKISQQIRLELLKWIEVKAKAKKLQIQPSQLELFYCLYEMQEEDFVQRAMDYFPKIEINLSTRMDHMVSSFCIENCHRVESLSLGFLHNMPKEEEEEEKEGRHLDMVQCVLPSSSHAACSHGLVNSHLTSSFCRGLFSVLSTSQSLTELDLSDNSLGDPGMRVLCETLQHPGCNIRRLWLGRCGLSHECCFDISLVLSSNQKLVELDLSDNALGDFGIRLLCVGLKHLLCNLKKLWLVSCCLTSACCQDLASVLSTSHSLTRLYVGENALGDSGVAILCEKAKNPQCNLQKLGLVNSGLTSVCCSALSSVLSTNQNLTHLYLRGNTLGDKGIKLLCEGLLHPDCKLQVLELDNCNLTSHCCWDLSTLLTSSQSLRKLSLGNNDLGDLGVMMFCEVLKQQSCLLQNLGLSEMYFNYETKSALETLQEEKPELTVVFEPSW

The experiment addresses NLRP3 (Homo sapiens, UniProt Q96P20). Nature of the experiment: THP-1 cell-based NLRP3 activation assay. Also on record: endogenous in cells; host or cells: THP-1 cells (PMA-differentiated, LPS-primed, nigericin-stimulated). As to conditions: PMA-differentiated THP-1 cells, LPS 100 ng/mL then 10 μM nigericin. Here is the method: THP-1 cells are cultured in complete media (CM) until they reach logarithmic growth and achieve a viability >90%. CM is composed of RPMI-1640 (+Glutamax)/10% fetal bovine serum/55 μM β-mercaptoethanol/pen/strep. Cells are spun down and resuspended to 1,000,000 cells/mL in CM containing either 20 nM or 500 nM PMA. 150,000 cells (150 μL) are then added to each well of a 96-well TC plate and incubated for either 24 hr or 3 hr, respectively, in a standard cell culture incubator (37° C.; 5% CO2). After this incubation, the plate is tilted and media carefully removed. 200 μL of CM containing 100 ng/mL LPS is then added to the wells and the cells incubated an additional 3 hrs. The media is again removed and replaced with Opti-Mem medium containing pre-determined dilutions of test compounds in replicate wells. After a 30 min incubation, 10 μM nigericin (final concentration) in Opti-Mem medium with the corresponding concentration of compound is added to the wells for an additional 1 hr. Positive control wells contain 10 μM nigericin in Opti-Mem in the absence of test compound, while negative control wells contain Opti-Mem only. […] Once supernatants are removed, the relative viability of adherent cells in the 96-well TC plate are determined using a CellTiter-Glo® luminescent cell viability assay (Promega).
Consider `CCOc1cc(C(=O)N(C)[C@H](CN(CC)CC)c2cncc3cn[nH]c23)ccc1-c1cccc(F)c1` [Compound 127], for which the IC50 (as a rule, the midpoint of a concentration-inhibition curve) is below 100 nM.

With `CCOc1cc(C(=O)N(Cc2cncc3cn[nH]c23)[C@H]2C[C@@H](N)C2)ccc1-c1cccc(C#N)c1` [Compound 289], the IC50 was below 100 nM.

Consider `CCOc1cc(C(=O)N(C)[C@@H](CN2CC(N(C)C)C2)c2cncc3cn[nH]c23)ccc1-c1cccc(F)c1` [Compound 187], for which the IC50 was below 100 nM.

`CCOc1cc(C(=O)N(CCO)Cc2cncc3cn[nH]c23)ccc1-c1cccc(F)c1` [Compound 041] returned an IC50 below 100 nM.

`CCOc1cc(C(=O)N(Cc2cccc3cn[nH]c23)[C@H]2C[C@@H](NC)C2)ccc1-c1cccc(C#N)c1` [Compound 265] returned an IC50 below 100 nM.

The molecule `CCOc1cc(C(=O)N(C)[C@@H](CCN)c2cnc(C)c3cn[nH]c23)ccc1C` [Compound 299] gave an IC50 of 1000 to 15000 nM.

`CCOc1cc(C(=O)N(Cc2cnc(C)c3cn[nH]c23)[C@H]2C[C@@H](NC)C2)ccc1-c1cccc(F)c1` [Compound 278] displayed a concentration for half-maximal inhibition (IC50) below 100 nM.

Turning to `CCOc1cc(C(=O)N(C)[C@H](COC)c2cncc3cn[nH]c23)ccc1-c1cccc(Cl)c1` [Compound 014], the IC50 was below 100 nM.

With `CCOc1cc(C(=O)N(C)C(CN2CCC(O)C2)c2cncc3cn[nH]c23)ccc1-c1cccc(F)c1` (stereo not shown) [Compound 247], the IC50 was below 100 nM.

Turning to `CCOc1cc(C(=O)N(C)[C@@H](CN(C)C)c2cccc3cn[nH]c23)ccc1-c1cccc(F)c1` [Compound 257], the half-inhibitory concentration (IC50) was below 100 nM.

The molecule `CCOc1cc(CN(CCN2CCOCC2)Cc2cncc3cn[nH]c23)ccc1-c1cccc(F)c1` [Compound 118] displayed an IC50 of 100 to 500 nM.

As to `CCOc1cc(C(=O)N(Cc2cncc3cn[nH]c23)[C@H]2CC[C@@H]2N)ccc1-c1cccc(F)c1` [Compound 294], the IC50 is 500 to 1000 nM.

As to `CCOc1cc(C(=O)N(C)[C@@H](c2cncc3cn[nH]c23)[C@@H]2CCN(C)C2)ccc1-c1cccc(F)c1` [Compound 081], the IC50 was below 100 nM.

Consider `CCOc1cc(C(=O)N(C)[C@H](CN(C)C)c2cncc3cn[nH]c23)ccc1C(C)C` [Compound 208], for which the IC50 was in the range of 1000 to 15000 nM.

In turn, `CCOc1cc(C(=O)N(C)[C@@H](CCO)c2cnc(C)c3cn[nH]c23)ccc1-c1cccc(C#N)c1` [Compound 030] showed a half-maximal inhibitory concentration (IC50) above 15000 nM.

Consider `CCOc1cc(C(=O)N(C)[C@H](CCN(C)C)c2cnc(CO)c3cn[nH]c23)ccc1-c1cccc(Cl)c1` [Compound 068], for which the IC50 was below 100 nM.

In turn, `CCOc1cc(C(=O)N(CCO)Cc2cnc(CNC)c3cn[nH]c23)ccc1-c1cccc(F)c1` [Compound 050] came in with an IC50 of 1000 to 15000 nM.

With `CCOc1cc(C(=O)N(C)C(c2cncc3cn[nH]c23)C2C[N+](C)([O-])C2)ccc1-c1cccc(F)c1` (stereo not shown) [Compound 192], the IC50 was in the range of 100 to 500 nM.

In the case of `CCOc1cc(C(=O)N(C)[C@H](CN(C)C)c2cncc3cn[nH]c23)ccc1-c1cccc(Cl)c1` [Compound 125], the IC50 is below 100 nM.

On to `CCOc1cc(C(=O)N(CCO)Cc2cncc3cn[nH]c23)ccc1-c1cccc(Cl)c1` [Compound 042], for which the IC50 is below 100 nM.

Consider `CN(C(=O)c1ccc(-c2cccc(F)c2)c(OC2CC2)c1)[C@@H](CCO)c1cncc2cn[nH]c12` [Compound 011], for which the IC50 fell in the range of 1000 to 15000 nM.

As to `CCOc1cc(C(=O)N(Cc2cnc(C)c3cn[nH]c23)C2CC2O)ccc1-c1cccc(F)c1` (stereo not shown) [Compound 045], the IC50 was below 100 nM.

Molecule `CCOc1cc(C(=O)N(C)[C@H](CO)c2cnc(C)c3cn[nH]c23)ccc1-c1cc(C)cc(F)c1` [Compound 021] displayed a half-inhibitory concentration (IC50) of 100 to 500 nM.

The molecule `CCOc1cc(C(=O)N(C)[C@H](CCN(C)C)c2cnc(C)c3cn[nH]c23)ccc1-c1cccc(C)c1` [Compound 084] yielded an IC50 below 100 nM.

`CCOc1cc(C(=O)N(C)[C@H](CCN(C)CC)c2cccc3cn[nH]c23)ccc1-c1cccc(F)c1` [Compound 214] displayed an IC50 below 100 nM.

`CCOc1cc(C(=O)N(CCN2C[C@@H](F)[C@H](F)C2)Cc2cncc3cn[nH]c23)ccc1-c1cccc(F)c1` [Compound 107]: the IC50 was below 100 nM.

`CCOc1cc(C(=O)N(C)[C@H](CCN(C)C)c2cncc3cn[nH]c23)ccc1C1CCC1` [Compound 156]: the IC50 is below 100 nM.

With `CCOc1cc(C(=O)N(C)[C@H](CO)c2cnc(C)c3cn[nH]c23)ccc1-c1cccc(F)c1` [Compound 017], the IC50 is below 100 nM.

Turning to `CCOc1cc(C(=O)N(Cc2cnc(C)c3cn[nH]c23)CC(C)(C)O)ccc1-c1cccc(F)c1` [Compound 053], the IC50 is below 100 nM.

On to `CCOc1cc(C(=O)N(C)[C@H](CC[N+](C)(C)[O-])c2cncc3cn[nH]c23)ccc1-c1cccc(F)c1` [Compound 145], for which the IC50 was 1000 to 15000 nM.

Turning to `Cc1ncc([C@@H](CCO)N(C)C(=O)c2ccc(-c3cccc(Cl)c3)c(OC3CC3)c2)c2[nH]ncc12` [Compound 026], the IC50 is below 100 nM.

Regarding `CCOc1cc(C(=O)N(C)[C@H](CC[N+](C)(C)[O-])c2cncc3cn[nH]c23)ccc1-c1cccc(Cl)c1` [Compound 163], the IC50 is below 100 nM.

The molecule `CCOc1cc(C(=O)N(C)[C@@H](c2cncc3cn[nH]c23)[C@H]2CCN(C)C2)ccc1-c1cccc(F)c1` [Compound 082] showed an IC50 below 100 nM.

`CCOc1cc(C(=O)N(C)[C@H](CCOC)c2cncc3cn[nH]c23)ccc1-c1cccc(Cl)c1` [Compound 016] yielded an IC50 above 15000 nM.

Turning to `CCOc1cc(C(=O)N(C)[C@H](CCN(CC)CCF)c2cncc3cn[nH]c23)ccc1-c1cccc(F)c1` [Compound 184], the IC50 is below 100 nM.

On to `CCOc1cccc(C(=O)N(C)[C@H](CCN(C)C)c2cnc(CO)c3cn[nH]c23)c1` [Compound 180], for which the IC50 was 500 to 1000 nM.

Molecule `CCOc1cc(C(=O)N(C)[C@H](CN(C)C)c2cnc(CO)c3cn[nH]c23)ccc1-c1cccc(F)c1` [Compound 188] returned an IC50 below 100 nM.

In the case of `CCOc1cc(C(=O)N(C)[C@H](CCNCCF)c2cncc3cn[nH]c23)ccc1-c1ccccc1` [Compound 136], the IC50 was below 100 nM.

For the molecule `CCOc1cc(C(=O)N(C)[C@@H](c2cncc3cn[nH]c23)C2CN(C)C2)ccc1-c1cccc(Cl)c1` [Compound 183], the IC50 is below 100 nM.

Regarding `CCOc1cc(C(=O)N(C)[C@@H](CCO)c2cncc3cn[nH]c23)ccc1-c1cccc(F)c1` [Compound 009], the IC50 is below 100 nM.

Regarding `CCOc1cc(C(=O)N(C)[C@@H](c2cccc3cn[nH]c23)C2CN(C)C2)ccc1-c1cccc(Cl)c1` [Compound 282], the IC50 was below 100 nM.

The molecule `CCOc1cc(C(=O)N(C)[C@H](CCN2CCC2)c2cncc3cn[nH]c23)ccc1-c1cccc(F)c1` [Compound 077] gave an IC50 below 100 nM.

Consider `CCOc1cc(C(=O)N(CCN2CCC(F)CC2)Cc2cncc3cn[nH]c23)ccc1-c1cccc(F)c1` [Compound 110], for which the IC50 is below 100 nM.

In the case of `CCOc1cc(C(=O)N(Cc2cncc3cn[nH]c23)[C@H]2C[C@@H](NC)C2)ccc1-c1cccc(F)c1` [Compound 234], the IC50 is 1000 to 15000 nM.

The molecule `CCOc1cc(C(=O)N(CCN2CCC(F)C2)Cc2cncc3cn[nH]c23)ccc1-c1cccc(F)c1` (stereo not shown) [Compound 109] yielded an IC50 below 100 nM.

Consider `CCOc1cc(C(=O)N(C)[C@H](c2cncc3cn[nH]c23)C2CN(C)C2)ccc1-c1ccccc1` [Compound 133], for which the IC50 is below 100 nM.

In turn, `CCOc1cc(C(=O)N(C)[C@H](CO)c2cnc(CO)c3cn[nH]c23)ccc1-c1cccc(Cl)c1` [Compound 036] registered an IC50 below 100 nM.

Regarding `CCOc1cc(C(=O)N(C)[C@@H](c2cncc3cn[nH]c23)C2CNC2)ccc1-c1cccc(C#N)c1` [Compound 141], the half-inhibitory concentration (IC50) is below 100 nM.

With `CCOc1cc(C(=O)N(CCN2C[C@@H](F)[C@@H](F)C2)Cc2cncc3cn[nH]c23)ccc1-c1cccc(F)c1` [Compound 108], the IC50 is below 100 nM.

For `CCOc1cc(C(=O)N(C)[C@H](c2cncc3cn[nH]c23)C2CNC2)ccc1-c1cccc(Cl)c1` [Compound 182], the IC50 is below 100 nM.

`CCOc1cc(C(=O)N(CCO)Cc2cnc(N)c3cn[nH]c23)ccc1-c1cccc(C#N)c1` [Compound 043] showed a 50% inhibitory concentration (IC50) of 100 to 500 nM.

As for `CCOc1cc(C(=O)N(C)[C@H](CCN(C)CCOC)c2cncc3cn[nH]c23)ccc1-c1cccc(Cl)c1` [Compound 229], the 50% inhibitory concentration (IC50) was below 100 nM.

As to `Cc1ncc([C@@H](CO)N(C)C(=O)c2ccc(-c3cccc(F)c3)c(OC3CC3)c2)c2[nH]ncc12` [Compound 022], the IC50 was below 100 nM.

As to `CCOc1cc(C(=O)N(C)[C@H](CCN(C)C)c2cccc3cn[nH]c23)ccc1-c1ccccc1` [Compound 194], the IC50 was below 100 nM.

`CCc1ncc([C@@H](CO)N(C)C(=O)c2ccc(-c3cc(F)cc(F)c3)c(OC3CC3)c2)c2[nH]ncc12` [Compound 035] returned an IC50 below 100 nM.

`CCOc1cc(C(=O)N(C)[C@H](CCN2CCC2)c2cccc3cn[nH]c23)ccc1-c1cccc(F)c1` [Compound 217] yielded a half-inhibitory concentration (IC50) below 100 nM.

Molecule `CCOc1cc(C(=O)N(Cc2cncc3cn[nH]c23)[C@H]2C[C@@H](NC)C2)ccc1-c1ccccc1` [Compound 239] gave a half-maximal inhibitory concentration (IC50) below 100 nM.

In the case of `CCOc1cc(C(=O)N(C)C(CCN(C)CC)c2cncc3cn[nH]c23)ccc1-c1cccc(F)c1` (stereo not shown) [Compound 066], the IC50 is below 100 nM.
